Experimental data published in paper PMC10419416, “Fighting Pseudomonas aeruginosa Infections: Antibacterial and Antibiofilm Activity of D-Q53 CecB, a Synthetic Analog of a Silkworm Natural Cecropin B Variant” (International Journal of Molecular Sciences, 2023).
Like-named read-outs stand apart in the source and are kept apart here. Non-standard residues stand in square brackets, D forms with d. Residues, ends and D or L forms follow the SMILES beside them. No end group written: not given here.

Experiments:
[1] = test system: P. aeruginosa (non-mucoid: ATCC 27853; mucoid: ATCC 25668); parameters: method as in PMID 31045339; conditions: planktonic forms; cited from earlier work
From the text: (§1) We, therefore, determined the anti-Pseudomonas activity of D-Q53 CecB in comparison to the L- counterpart versus the planktonic forms of the same ATCC 27853 and ATCC 25668 strains, and a third POA1-L strain (Lausanne subline).

[2] = test system: P. aeruginosa ATCC 27853 and ATCC 25668 strains; parameters: method as in PMID 31045339; conditions: planktonic forms; cited from earlier work
From the text: as §1

[3] = test system: P. aeruginosa ATCC 25668, ATCC 27853, and PAO1-L strains; experiment: microbe, parasite or virus in culture; type: cell-based, Pseudomonas aeruginosa; conditions: LB medium, 24 h, 37 °C, OD600; same value for all three strains; triplicate, at least three experiments
Description: (§2) The following strains were used: P. aeruginosa ATCC 27853, ATCC 25668, and PAO1-L (Lausanne subline). All strains were grown at 37 °C in Luria Bertani (LB) medium or in Luria Bertani Agar (LBA) plates.
(§3) The antibacterial activities of L- and D-Q53 CecB were evaluated by determining (i) the MIC and (ii) the MBC. Tobramycin (Merck) was used as an antibiotic control. (i) An overnight (ON) bacterial culture was diluted to 1 × 10^6 cells/mL in LB medium. 50 µL/well were seeded in sterile polypropylene 96-well plates (Corning, Corning, NY, USA) and added with 50 µL LB medium, containing serial dilutions of each compound (final concentrations of L- and D-Q53 CecB peptides from 1.1 to 35.2 µM; final concentrations of tobramycin from 0.26 to 17 μM; each condition in triplicate). Microbial suspensions in the growing medium (positive control) and wells with only the medium (negative controls) were processed in parallel. Plates were incubated 24 h at 37 °C with agitation (300 rpm), and the absorbance was measured at 600 nm in a microplate reader. The MIC was considered as the lowest concentration determining a delta optical density at 600 nm (ΔOD600) equal to 0 ± 0.05. The ΔOD600 was determined by subtracting the OD600 recorded at time 0 from that obtained after 24 h. Each experiment was performed at least three times. […] For each sample, 100 μL of 1:10, 1:100, and 1:1000 dilutions were plated on LBA plates, and colonies were counted after 24 h at 37 °C. […] Each experiment was performed at least twice.

[4] = test system: P. aeruginosa PAO1-L strain; experiment: microbe, parasite or virus in culture; type: cell-based, Pseudomonas aeruginosa; conditions: value between parentheses, 24 h, 37 °C, plating on LBA
Description: as §2, §3

in vitro = type: cell-based, human
Description: (§4) The peptide cytotoxicity against human cells was evaluated using CCD-34Lu-lung fibroblasts and A549-lung adenocarcinoma cells. Moreover, 6 × 10^3 cells in DMEM medium added with 10% FBS were seeded in 96-well sterile plates. After 24 h, cells were incubated with increasing concentrations of peptide (final concentrations of 5, 10, 25, 50, and 100 µM, with an additional concentration of 200 µM in CCD-34Lu) for 24 h at 37 °C (three replicates per condition). Cell viability was measured by removing the exhausted medium, adding 100 µL of DMEM and 20 µL of the MTS solution (Promega). Plates were incubated at 37 °C for 20 min until the complete conversion of the compound. The absorbance was measured at 492 nm using a microplate reader. Cell viability was calculated using the formula: Viability (%)=ODCecB−OD0/ODCtrl−OD0×100, where ODCecB is the OD in the presence of the peptide, ODCtrl is the OD of cells without the peptide, and OD0 is the background absorbance (wells with only medium and MTS compound). The experiment was performed at least twice.

[5] = test system: A549 lung adenocarcinoma cells; experiment: in vitro; type: cell-based, human
Description: as §4

[6] = test system: CCD-34Lu lung fibroblasts; experiment: in vitro; type: cell-based, human
Description: as §4

| Compound | MIC [1] [µM] | MBC [2] [µM] | MIC [3] [µM] | MBC [4] [µM] | IC50 at 24 h (in vitro) [µM] | IC50 at 24 h (in vitro; human) [µM] | cell viability ([5]; 50 µM) | cell viability ([5]; 100 µM) [%] | cell viability ([6]; 50 µM) | cell viability ([6]; 100 µM) [%] | cell viability ([6]; 200 µM) [%] |
| --- | --- | --- | --- | --- | --- | --- | --- | --- | --- | --- | --- |
| RWKIFKKIEKMGRNIRDGIVKAGPAIQVLGSAKAI-NH2 [L-Q53 CecB] | 2.2 | 11 | 2.20 | 4.40 | – | – | – | – | – | – | – |
| CC[C@@H](C)[C@@H](NC(=O)[C@@H](C)NC(=O)[C@@H](CCCCN)NC(=O)[C@@H](C)NC(=O)[C@@H](CO)NC(=O)CNC(=O)[C@@H](CC(C)C)NC(=O)[C@H](NC(=O)[C@@H](CCC(N)=O)NC(=O)[C@H](NC(=O)[C@@H](C)NC(=O)[C@H]1CCCN1C(=O)CNC(=O)[C@@H](C)NC(=O)[C@@H](CCCCN)NC(=O)[C@H](NC(=O)[C@H](NC(=O)CNC(=O)[C@@H](CC(=O)O)NC(=O)[C@@H](CCCNC(=N)N)NC(=O)[C@H](NC(=O)[C@@H](CC(N)=O)NC(=O)[C@@H](CCCNC(=N)N)NC(=O)CNC(=O)[C@@H](CCSC)NC(=O)[C@@H](CCCCN)NC(=O)[C@@H](CCC(=O)O)NC(=O)[C@H](NC(=O)[C@@H](CCCCN)NC(=O)[C@@H](CCCCN)NC(=O)[C@@H](Cc1ccccc1)NC(=O)[C@H](NC(=O)[C@@H](CCCCN)NC(=O)[C@@H](Cc1c[nH]c2ccccc12)NC(=O)[C@H](N)CCCNC(=N)N)[C@H](C)CC)[C@H](C)CC)[C@H](C)CC)[C@H](C)CC)C(C)C)[C@H](C)CC)C(C)C)C(N)=O [D-Q53 CecB] (H-[dR][dW][dK][dI][dF][dK][dK][dI][dE][dK][dM]G[dR][dN][dI][dR][dD]G[dI][dV][dK][dA]G[dP][dA][dI][dQ][dV][dL]G[dS][dA][dK][dA][dI]-NH2; N-terminus and C-terminus assumed) | – | – | – | – | 72.6 ± 2.81 | 68 ± 3.71 | ~ 79% | ~15 | ~ 85% | ~27 | ~4.5 |
